Assay [1] relates to transient middle cerebral artery occlusion in rats. The experiment in a line: Transient middle cerebral artery occlusion (MCAo), infarct size evaluation. The conditions noted are these: for Mortality rate: 5 mg/kg IV at 2+0 hours; for reduction of infarct size: IV, one week after the ischemic insult. In kind it is in vivo. Summed up:
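Male rats (320-380 g) had filament MCAo for 2 h, then reperfusion; compounds at 5 mg/kg IV in cremophor-ethanol diluted in saline were given just before thread removal or 1 h after it. Success of occlusion was judged by a drop of more than 50% in Laser Doppler flow. After one week, formaldehyde-perfused brains were taken for histological infarct volume.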

For another assay, the system named is transient MCAo in rats. The experiment in a line: Transient MCAo evaluated by the staircase test. It is filed as in vivo. To be noted: for reduction of infarct volume compared to vehicle: not statistically different. How it is done:
The materials for this procedure are identical to those from Physiological Example 5, except for the different concentrations of PRS-211,095. The procedural differences are as follows: • Male Sprague Dawley rats, 230-270 gr (Harlan, Israel) were used. The following compounds and their respective concentrations were tested: • Dexanabinol and analogs PRS-211,095 and PRS-211,220 in PEG ethanol cosolvent 50 mg/ml. Dexanabinol, the analogs and their vehicle were diluted in Intralipid® 20% (Pharmacia) prior to drug administration.
The procedure is essentially as described in Montoya et al. (Montoya, Campbell-Hope, Pemberton and Dunnet, J. Neurosci. Meth. 36:219-228, 1991) Animals were kept under mild food deprivation for 3-5 days, receiving 15-gr. food once a day (between 16:00 and 17:00) and free access to water. Animals were trained prior to the test for 3-5 days according to the protocol of Sharkey et. al. (Sharkey, Crawford, Butcher and Martson, Stroke 27:2282-2286, 1996).
In brief, the staircase box contains two rows of seven stairs in each. Two 45 mg food pellets were placed on each step. Animals were placed in the box for 15 minutes sessions. At the end of the session the number of eaten (grasped) and displaced pellets was counted and recorded. Animals were tested twice a day, 4 hours apart. The first session was performed between 8-9 AM and second between 12-13 PM. The animals were trained until they grasped (ate) at least 8 pellets from each set of stairs for two consecutive sessions. Up to one week after the end of the successful training session the animals underwent transient MCAo. Transient MCAo was performed in essentially the same manner as described in Physiological example 5 with the following modification at step i: • Two minutes prior to thread removal rats were re-anesthetized and administered IV with Dexanabinol 5mg/kg, analogs PRS-211,220 or PRS-211,095 at 0.5, 2.5, 5 or 10 mg/kg or vehicle 5 ml/kg. One additional group was sham-treated.
Animals were allowed to recover from the surgery for five days. The mild food deprivation was re-employed during the days following the ischemic insult. They were tested in the staircase box using the above method for 9-12 days. Animals were weighed twice a week during this period.
At the end of the evaluation period, animals were euthanized with pentobarbitone 100 mg/kg IP. The animals were perfused through the heart with heparinized 4% formaldehyde solution in PBS (pH 7.4). Brains were then removed, and kept in the same solution for at least 24h. Then the brains - from the rostral side of the cortex to the cerebellum- were sunk in 30% sucrose in PBS, cryosectioned (20 µm), dried and stained with thionin for histological evaluation of the brain infarct volume. Eight sections at the levels of: 3.3;+2.8;+1.8; +0.8; -0.4;-1.4; -2.2; and -3.4 from Bregma were measured (Swanson, Rat Brain Atlas, 1992). Sections were captured by a CCD camera (V-tech MP-470) and image analyzed (Scion image 1.62A). Infarct size was determined from the series of the 8 sections by either calculation of the infarct volume (mm3) by summing the series of mean lesion areas of two adjacent sections multiplied by the distance between them or calculation of the mean infarct size as percentage of the contralateral hemisphere size; calculation of the mean of the surviving ipsilateral side as percentage of the contralateral hemisphere size; calculation of the mean ipsilateral side ventricle as percentage of the contralateral hemisphere ventricle.
• a. The infarct size was compared using ANOVA (analysis of variance) followed by Duncan's post hoc test. • b. […]

The results in this text go back to patent EP1785417A2, “Novel non-psychotropic cannabinoids” (priority 2000, dated 2001).

`CCCCCCC(C)(C)c1cc(O)c2c(c1)OC(C)(C)[C@H]1CC=C(CO)C[C@H]21` [211,007-000 HU-211, 1,1 dimethyl heptyl-(3 S,4S)-7-hydroxy-Δ^6-tetrahydrocannabinol, reference compound]: in assay [1], the Mortality rate is 9% and the “reduction of infarct size” value stood at 48%. For the same compound, the “contralateral performance, pellet consumption” value with transient MCAo in rats (0.5 mg/kg) was “No improvement”. Further, the “reduction of infarct volume compared to vehicle” value with transient MCAo in rats (5 mg/kg, histopathology) amounted to 35%. For the same compound, in the assay with transient MCAo in rats (Table 4, 5 mg/kg IV), the “Mortality Rate(%)” value is listed as 0% and the “No. Dead Animals” value was found to be 0. Moreover, in the assay on transient MCAo in rats (Table 5, 0.5 mg/kg IV), the “Mortality Rate(%)” value was 36% and the “No. Dead Animals” value came out at 4.

`CCCCCCC(C)(C)c1cc(O)c2c(c1)OC(C)(C)[C@H]1CC=C(Cn3ccnc3)C[C@H]21` (single isomer, unassigned) [211,095-000]: the Mortality rate result in assay [1] is given as “No mortality”. Moreover, the “reduction of infarct size” value in assay [1] is 60%. In addition, in assay [1] (compared to the other treatment groups), the “Behavioral / Neurological outcome” value was “fewer neurological deficits and recovered faster”. Moreover, the “contralateral performance, pellet consumption” value with transient MCAo in rats (0.5 mg/kg) is recorded as “moderately improved pellet consumption”; in the assay on transient MCAo in rats (2.5 mg/kg), “moderately improved pellet consumption”; with transient MCAo in rats (5 mg/kg) it was “robust improvement”; in the assay with transient MCAo in rats (10 mg/kg), “robust improvement”. In the assay on transient MCAo in rats (2.5 mg/kg, histopathology), the “infarct volume, protection” value is “No protection”. Moreover, the “reduction of infarct volume compared to vehicle” value with transient MCAo in rats (5 mg/kg, histopathology) was found to be 35%. The “Mortality Rate(%)” value with transient MCAo in rats (Table 4, 0.5 mg/kg IV) came to 21%; with transient MCAo in rats (Table 4, 2.5 mg/kg IV), 30%; in the assay on transient MCAo in rats (Table 4, 5 mg/kg IV), 0%; with transient MCAo in rats (Table 4, 10 mg/kg IV), 9%. In addition, the “No. Dead Animals” value in the assay with transient MCAo in rats (Table 4, 0.5 mg/kg IV) is 3; in the assay on transient MCAo in rats (Table 4, 2.5 mg/kg IV), 3; in the assay with transient MCAo in rats (Table 4, 5 mg/kg IV), 0; in the assay with transient MCAo in rats (Table 4, 10 mg/kg IV), 1.
